How the values were obtained:
[1] = Half-life in Sprague-Dawley rat at 1 mg/kg, iv and 10 mg/kg, po measured up to 24 hrs by LC-MS/MS analysis; format: ADME, organism-based; details: in vivo
[2] = Fraction unbound in mouse brain at 5 uM incubated for 6 hrs by equilibrium dialysis based LC-MS/MS analysis; format: ADME, tissue-based
[3] = biological target: Metabotropic glutamate receptor 1 (Homo sapiens, UniProt Q13255); experiment: Positive allosteric modulation of mGlu1 receptor (unknown origin)
Chain of Metabotropic glutamate receptor 1 (Q13255 whole entry): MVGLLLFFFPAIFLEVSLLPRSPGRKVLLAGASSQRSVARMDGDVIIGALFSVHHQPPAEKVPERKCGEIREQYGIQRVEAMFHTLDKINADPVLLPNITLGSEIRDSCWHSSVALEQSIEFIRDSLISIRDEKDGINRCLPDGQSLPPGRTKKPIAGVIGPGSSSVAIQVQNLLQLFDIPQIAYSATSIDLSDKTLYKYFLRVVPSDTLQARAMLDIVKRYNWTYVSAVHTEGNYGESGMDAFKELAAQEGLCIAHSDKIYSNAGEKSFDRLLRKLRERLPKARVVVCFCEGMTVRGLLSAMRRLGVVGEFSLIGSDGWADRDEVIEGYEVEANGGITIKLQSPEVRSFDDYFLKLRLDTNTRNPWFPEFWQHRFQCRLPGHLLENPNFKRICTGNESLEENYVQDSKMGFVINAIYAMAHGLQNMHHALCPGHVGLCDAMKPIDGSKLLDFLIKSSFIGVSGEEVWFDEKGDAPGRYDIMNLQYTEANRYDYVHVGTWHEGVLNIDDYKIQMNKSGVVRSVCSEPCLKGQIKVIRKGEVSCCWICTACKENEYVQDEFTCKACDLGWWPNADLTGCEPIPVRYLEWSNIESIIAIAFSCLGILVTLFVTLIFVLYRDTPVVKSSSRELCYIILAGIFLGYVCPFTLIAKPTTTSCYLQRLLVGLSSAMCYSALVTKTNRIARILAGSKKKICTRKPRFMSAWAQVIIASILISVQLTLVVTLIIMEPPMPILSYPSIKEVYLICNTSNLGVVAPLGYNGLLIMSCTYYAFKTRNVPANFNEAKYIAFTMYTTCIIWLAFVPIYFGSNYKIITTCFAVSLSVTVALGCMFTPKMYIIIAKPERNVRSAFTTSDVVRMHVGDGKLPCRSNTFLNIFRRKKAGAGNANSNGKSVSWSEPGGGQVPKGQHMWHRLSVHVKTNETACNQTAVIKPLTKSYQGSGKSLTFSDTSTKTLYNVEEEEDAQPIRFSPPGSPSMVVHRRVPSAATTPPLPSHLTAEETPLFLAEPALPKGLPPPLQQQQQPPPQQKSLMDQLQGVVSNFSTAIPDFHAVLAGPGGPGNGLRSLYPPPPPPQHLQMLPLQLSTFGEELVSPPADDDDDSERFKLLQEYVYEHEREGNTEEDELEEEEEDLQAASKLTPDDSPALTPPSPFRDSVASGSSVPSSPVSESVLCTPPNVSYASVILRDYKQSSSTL

[4] = Unbound plasma to brain permeability coefficient, Kp of the compound in CD-1 mouse at 10 mg/kg, ip measured after 0.5 hrs by LC-MS/MS analysis; format: ADME, organism-based; details: read-out: K(p,uu,brain)
[5] = biological target: Sigma non-opioid intracellular receptor 1 (Homo sapiens, UniProt Q99720); experiment: Displacement of [3H]-Pentazocine from human recombinant sigma 1 receptor incubated for 120 mins by scintillation counting analysis relative to control
Chain of Sigma non-opioid intracellular receptor 1 (Q99720 whole entry): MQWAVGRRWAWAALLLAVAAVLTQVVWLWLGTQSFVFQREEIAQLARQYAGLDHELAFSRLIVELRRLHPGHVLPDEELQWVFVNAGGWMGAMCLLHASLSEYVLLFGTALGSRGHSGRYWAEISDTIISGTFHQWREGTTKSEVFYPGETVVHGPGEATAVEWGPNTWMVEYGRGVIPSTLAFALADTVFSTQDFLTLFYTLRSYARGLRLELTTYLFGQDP

[6] = Fraction unbound in mouse plasma at 5 uM incubated for 4 hrs by equilibrium dialysis based LC-MS/MS analysis; format: ADME, cell-free
[7] = biological target: hERG (KCNH2) (Homo sapiens, UniProt Q12809); experiment: Displacement of [3H]-Astemizole from human recombinant full length ERG channel at 10 uM incubated for 60 mins by scintillation counting analysis relative to control; details: probe [3H]-astemizole
[8] = Fraction unbound in rat plasma at 5 uM incubated for 4 hrs by equilibrium dialysis based LC-MS/MS analysis; format: ADME, cell-free
[9] = Hepatic intrinsic clearance in mouse liver microsomes at 1 uM preincubated for 5 mins followed by NADPH addition and measured up to 45 mins by LC-MS/MS analysis; format: ADME, Microsome; details: read-out: CLH
[10] = biological target: Metabotropic glutamate receptor 8 (Homo sapiens, UniProt O00222); experiment: Positive allosteric modulation of mGlu8 receptor (unknown origin)
Chain of Metabotropic glutamate receptor 8 (O00222 whole entry): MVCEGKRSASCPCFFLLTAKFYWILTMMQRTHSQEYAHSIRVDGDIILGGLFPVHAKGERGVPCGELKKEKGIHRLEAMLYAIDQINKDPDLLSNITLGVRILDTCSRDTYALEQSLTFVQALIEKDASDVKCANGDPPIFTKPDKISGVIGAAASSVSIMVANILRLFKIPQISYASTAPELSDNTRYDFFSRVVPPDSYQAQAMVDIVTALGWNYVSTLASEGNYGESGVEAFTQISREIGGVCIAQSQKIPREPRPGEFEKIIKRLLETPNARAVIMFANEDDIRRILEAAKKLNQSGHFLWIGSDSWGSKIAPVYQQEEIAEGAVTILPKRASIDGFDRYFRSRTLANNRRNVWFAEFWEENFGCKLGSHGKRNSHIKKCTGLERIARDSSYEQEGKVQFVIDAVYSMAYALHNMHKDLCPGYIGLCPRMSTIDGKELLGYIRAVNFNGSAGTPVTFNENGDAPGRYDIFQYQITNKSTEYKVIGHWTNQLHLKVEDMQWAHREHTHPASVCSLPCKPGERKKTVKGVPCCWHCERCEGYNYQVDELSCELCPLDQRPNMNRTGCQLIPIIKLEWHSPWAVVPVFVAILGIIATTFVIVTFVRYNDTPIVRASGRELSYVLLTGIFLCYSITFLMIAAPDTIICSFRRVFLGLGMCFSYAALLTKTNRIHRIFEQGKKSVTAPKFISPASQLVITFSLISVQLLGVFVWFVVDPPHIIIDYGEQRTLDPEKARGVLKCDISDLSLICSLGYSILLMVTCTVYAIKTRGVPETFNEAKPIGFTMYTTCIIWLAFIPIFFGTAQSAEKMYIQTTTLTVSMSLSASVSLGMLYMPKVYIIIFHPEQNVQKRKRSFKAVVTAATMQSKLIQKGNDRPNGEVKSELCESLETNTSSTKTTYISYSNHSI

[11] = biological target: Metabotropic glutamate receptor 4 (Homo sapiens, UniProt Q14833); experiment: Positive allosteric modulation of mGlu4 receptor (unknown origin)
[12] = biological target: T1, Metabotropic glutamate receptor 7 (Rattus norvegicus, UniProt P35400); experiment: Positive allosteric modulation of rat mGlu7 receptor expressed in HEK293 cells co-expressing Gai5 assessed as potentiation of L-AP4-induced calcium mobilization preincubated for 140 secs and treated with EC20 L-AP4 for 125 secs and followed by subsequent addition of EC80 L-AP4 by Fluo-4-AM dye based fluorescence assay; format: functional, cell-based
T1 sequence (P35400 whole entry): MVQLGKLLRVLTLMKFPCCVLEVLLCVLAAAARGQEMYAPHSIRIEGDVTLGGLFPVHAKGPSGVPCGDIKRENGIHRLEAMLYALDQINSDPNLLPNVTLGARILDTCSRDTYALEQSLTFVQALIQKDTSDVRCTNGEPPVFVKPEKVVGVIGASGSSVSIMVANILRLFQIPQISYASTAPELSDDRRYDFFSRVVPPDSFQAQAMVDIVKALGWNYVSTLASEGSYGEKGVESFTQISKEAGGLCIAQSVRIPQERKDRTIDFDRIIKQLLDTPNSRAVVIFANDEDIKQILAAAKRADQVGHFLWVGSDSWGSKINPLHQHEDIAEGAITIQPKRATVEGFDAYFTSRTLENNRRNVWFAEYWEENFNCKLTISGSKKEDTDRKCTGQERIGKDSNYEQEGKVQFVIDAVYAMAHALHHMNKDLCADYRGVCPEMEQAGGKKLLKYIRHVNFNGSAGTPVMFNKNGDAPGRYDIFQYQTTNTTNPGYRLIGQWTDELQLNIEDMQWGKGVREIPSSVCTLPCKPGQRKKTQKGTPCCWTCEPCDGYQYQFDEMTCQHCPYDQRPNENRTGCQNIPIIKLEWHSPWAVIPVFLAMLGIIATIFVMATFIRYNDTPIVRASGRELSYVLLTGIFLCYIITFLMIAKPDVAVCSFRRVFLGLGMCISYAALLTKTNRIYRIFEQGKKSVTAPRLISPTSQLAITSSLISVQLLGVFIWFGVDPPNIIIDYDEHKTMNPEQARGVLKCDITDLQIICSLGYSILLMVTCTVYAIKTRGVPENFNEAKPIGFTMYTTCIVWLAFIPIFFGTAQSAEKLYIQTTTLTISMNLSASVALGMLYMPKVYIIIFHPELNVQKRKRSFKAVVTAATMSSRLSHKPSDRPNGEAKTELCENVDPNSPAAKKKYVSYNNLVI

[13] = Plasma to brain permeability coefficient, Kp of the compound in Sprague-Dawley rat at 0.2 mg/kg, iv measured after 0.25 hrs by LC-MS/MS analysis; format: ADME, organism-based
[14] = Plasma to brain permeability coefficient, Kp of the compound in CD-1 mouse at 10 mg/kg, ip measured after 0.5 hrs by LC-MS/MS analysis; format: ADME, organism-based
[15] = biological target: Sodium-dependent dopamine transporter (Homo sapiens, UniProt Q01959); experiment: Displacement of […] from recombinant human Dopamine transporter after 120 mins by scintillation counting analysis; format: ADME
[16] = biological target: Metabotropic glutamate receptor 5 (Homo sapiens, UniProt P41594); experiment: Positive allosteric modulation of mGlu5 receptor (unknown origin)
[17] = biological target: dopamine transporter (DAT) (Homo sapiens, UniProt Q01959); experiment: Displacement of […] from recombinant human Dopamine transporter at 10 uM after 120 mins by scintillation counting analysis relative to control; format: ADME
[18] = Hepatic intrinsic clearance in rat liver microsomes at 1 uM preincubated for 5 mins followed by NADPH addition and measured up to 45 mins by LC-MS/MS analysis; format: ADME, Microsome; details: read-out: CLH
[19] = biological target: Metabotropic glutamate receptor 3 (Homo sapiens, UniProt Q14832); experiment: Positive allosteric modulation of mGlu3 receptor (unknown origin)
Chain of Metabotropic glutamate receptor 3 (Q14832 whole entry): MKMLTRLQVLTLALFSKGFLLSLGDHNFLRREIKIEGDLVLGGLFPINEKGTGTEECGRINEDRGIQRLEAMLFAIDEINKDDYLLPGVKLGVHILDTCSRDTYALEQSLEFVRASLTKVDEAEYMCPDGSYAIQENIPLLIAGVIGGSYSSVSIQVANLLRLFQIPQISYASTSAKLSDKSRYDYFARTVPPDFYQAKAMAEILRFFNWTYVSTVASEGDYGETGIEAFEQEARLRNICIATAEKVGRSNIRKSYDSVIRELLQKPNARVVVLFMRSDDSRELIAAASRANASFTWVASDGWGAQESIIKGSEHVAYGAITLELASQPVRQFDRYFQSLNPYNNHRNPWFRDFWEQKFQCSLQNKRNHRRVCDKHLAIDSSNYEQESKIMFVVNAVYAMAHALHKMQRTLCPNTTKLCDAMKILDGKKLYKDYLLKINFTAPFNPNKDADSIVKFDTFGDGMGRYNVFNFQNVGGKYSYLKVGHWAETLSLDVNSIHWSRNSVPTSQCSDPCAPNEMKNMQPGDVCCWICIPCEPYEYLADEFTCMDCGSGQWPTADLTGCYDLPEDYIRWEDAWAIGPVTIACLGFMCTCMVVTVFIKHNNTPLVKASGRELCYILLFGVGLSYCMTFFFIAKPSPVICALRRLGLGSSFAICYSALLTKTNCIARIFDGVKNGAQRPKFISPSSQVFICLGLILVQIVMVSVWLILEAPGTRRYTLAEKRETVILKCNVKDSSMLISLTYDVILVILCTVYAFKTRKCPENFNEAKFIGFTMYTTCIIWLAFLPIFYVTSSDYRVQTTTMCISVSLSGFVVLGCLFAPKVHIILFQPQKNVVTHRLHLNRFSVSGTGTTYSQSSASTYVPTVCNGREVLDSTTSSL

[20] = biological target: Metabotropic glutamate receptor 2 (Homo sapiens, UniProt Q14416); experiment: Positive allosteric modulation of mGlu2 receptor (unknown origin)
Chain of Metabotropic glutamate receptor 2 (Q14416 whole entry): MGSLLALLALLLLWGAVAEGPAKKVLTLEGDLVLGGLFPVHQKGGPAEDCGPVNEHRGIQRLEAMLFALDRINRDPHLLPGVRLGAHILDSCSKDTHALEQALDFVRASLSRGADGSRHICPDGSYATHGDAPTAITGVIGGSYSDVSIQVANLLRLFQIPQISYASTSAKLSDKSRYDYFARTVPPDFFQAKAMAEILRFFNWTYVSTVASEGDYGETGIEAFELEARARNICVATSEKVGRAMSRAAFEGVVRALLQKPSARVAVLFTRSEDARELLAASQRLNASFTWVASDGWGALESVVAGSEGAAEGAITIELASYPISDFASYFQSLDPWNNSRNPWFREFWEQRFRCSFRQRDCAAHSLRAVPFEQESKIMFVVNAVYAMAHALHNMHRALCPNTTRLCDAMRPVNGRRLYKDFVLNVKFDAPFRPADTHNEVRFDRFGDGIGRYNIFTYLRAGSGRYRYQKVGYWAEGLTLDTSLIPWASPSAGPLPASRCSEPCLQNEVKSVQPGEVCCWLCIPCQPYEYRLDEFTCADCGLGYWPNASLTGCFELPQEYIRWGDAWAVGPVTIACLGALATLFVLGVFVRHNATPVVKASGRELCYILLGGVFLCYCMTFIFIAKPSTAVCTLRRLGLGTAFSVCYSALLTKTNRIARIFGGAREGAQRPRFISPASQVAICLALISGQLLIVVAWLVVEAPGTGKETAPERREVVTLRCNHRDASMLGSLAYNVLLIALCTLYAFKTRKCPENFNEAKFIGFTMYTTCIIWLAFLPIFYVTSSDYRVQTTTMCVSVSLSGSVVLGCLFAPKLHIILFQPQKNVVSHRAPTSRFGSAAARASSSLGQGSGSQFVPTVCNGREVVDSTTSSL

[21] = Fraction unbound in rat brain at 5 uM incubated for 6 hrs by equilibrium dialysis based LC-MS/MS analysis; format: ADME, tissue-based
[22] = biological target: T1, Metabotropic glutamate receptor 7; experiment: Positive allosteric modulation of rat mGlu7 expressed in HEK293 cells co- expressing GIRK assessed as potentiation of L-AP4-induced thallium flux incubated for 140 sec by FluoZin2-AM dye based fluorescence analysis; format: cell-based
[23] = Oral bioavailability in Sprague-Dawley rat at 10 mg/kg measured upto 24 hrs by LC-MS/MS analysis; format: ADME, organism-based; details: in vivo
[24] = Unbound plasma to brain permeability coefficient, Kp of the compound in Sprague-Dawley rat at 0.2 mg/kg, iv measured after 0.25 hrs by LC-MS/MS analysis; format: ADME, organism-based; details: read-out: K(p,uu,brain)

With [2H]C([2H])([2H])Oc1cc(F)cc2c(N3CCN(c4ccccc4F)CC3)c(C#N)cnc12 the half-life [1] was 7.5 h, the fraction unbound at 6 h, 5 µM [2] was 0.001 and the EC50 [3] was > 30 µM. The Kp uu at 0.5 h [4] was 0.23, the IC50 [5] was 3.5 µM and the fraction unbound at 4 h, 5 µM [6] was 0.01. For the same molecule, the inhibition at 1 h, 10 µM [7] was < 50%, the fraction unbound at 4 h, 5 µM [8] was 0.01 and the CLint scaled at 1 µM [9] was 5.06 L/h/kg. For the same molecule, the EC50 [10] was > 10 µM, the EC50 [11] was > 30 µM and the EC50 ([12]; read-out: EC50) was 1.1 µM. The EC50 ([12]; read-out: pEC50 (converted)) was 1.58 µM, the Kp at 0.25 h [13] was 4.78 and the Kp at 0.5 h [14] was 2.74. The Ki [15] was > 10 µM, the EC50 [16] was > 30 µM and the inhibition at 2 h, 10 µM [17] was < 50%. The CLint scaled at 1 µM [18] was 2.81 L/h/kg, the EC50 [19] was > 30 µM and the EC50 [20] was > 30 µM. It also gave a fraction unbound at 6 h, 5 µM [21] of 0.002, an EC50 [22] of 0.99 µM and a bioavailability [23] of 69.5%. It also gave a Kp uu at 0.25 h [24] of 0.96.
